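Values below derive from 48-hour exposures of cells grown in 96-well plates, with endpoints linearly interpolated between the two concentrations bracketing the appropriate inhibition level. TGI is the concentration that stops growth completely.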
What was measured:
Test in all cases: inhibition of tumour cell growth, NCI panel, 48 h
DMS 273 small cell lung = test system: DMS 273 small cell lung
RPMI-8226 leukemia = test system: RPMI-8226 leukemia
HL-60(TB) leukemia = test system: HL-60(TB) leukemia
HCT-116 colon = test system: HCT-116 colon
KM20L2 colon = test system: KM20L2 colon
MOLT-4 leukemia = test system: MOLT-4 leukemia
HOP-92 NSCLC = test system: HOP-92 NSCLC
UO-31 renal = test system: UO-31 renal
HCT-15 colon = test system: HCT-15 colon
SF-268 CNS = test system: SF-268 CNS
TK-10 renal = test system: TK-10 renal
SK-MEL-2 melanoma = test system: SK-MEL-2 melanoma
SW-620 colon = test system: SW-620 colon
UACC-62 melanoma = test system: UACC-62 melanoma
U251 CNS = test system: U251 CNS
XF 498 CNS = test system: XF 498 CNS
RXF 393 renal = test system: RXF 393 renal
OVCAR-8 ovarian = test system: OVCAR-8 ovarian
A549 NSCLC = test system: A549 NSCLC
DLD-1 colon = test system: DLD-1 colon
IGROV1 ovarian = test system: IGROV1 ovarian
HT29 colon = test system: HT29 colon
SF-295 CNS = test system: SF-295 CNS
LOX IMVI melanoma = test system: LOX IMVI melanoma
COLO 205 colon = test system: COLO 205 colon
M19-MEL melanoma = test system: M19-MEL melanoma
HOP-18 NSCLC = test system: HOP-18 NSCLC
HOP-62 NSCLC = test system: HOP-62 NSCLC
NCI-H23 lung = test system: NCI-H23 lung
OVCAR-3 ovarian = test system: OVCAR-3 ovarian
SR leukemia = test system: SR leukemia
SF-539 CNS = test system: SF-539 CNS
SNB-75 CNS = test system: SNB-75 CNS
HCC-2998 colon = test system: HCC-2998 colon
EKVX NSCLC = test system: EKVX NSCLC
786-0 renal = test system: 786-0 renal
SK-OV-3 ovarian = test system: SK-OV-3 ovarian
LXFL 529 NSCLC = test system: LXFL 529 NSCLC
SK-MEL-28 melanoma = test system: SK-MEL-28 melanoma
UACC-257 melanoma = test system: UACC-257 melanoma
NCI-H460 lung = test system: NCI-H460 lung
MALME-3M melanoma = test system: MALME-3M melanoma
SNB-19 CNS = test system: SNB-19 CNS
NCI-H226 lung = test system: NCI-H226 lung
SN12C renal = test system: SN12C renal
RXF-631 renal = test system: RXF-631 renal
CCRF-CEM leukemia = test system: CCRF-CEM leukemia
OVCAR-5 ovarian = test system: OVCAR-5 ovarian
ACHN renal = test system: ACHN renal
SNB-78 CNS = test system: SNB-78 CNS

Measured: TGI

CCOC(=O)Cn1c2ccccc2c(=O)c2cc(C)c(C)c(C#N)c21
97.2 µM: XF 498 CNS
66.1 µM: SNB-75 CNS
> 100 µM: all other assays above
